Assay [1] deals with gastric adenocarcinoma AGS. As to the kind of experiment: MTT assay, AGS cells. The settings on record: for IC50: Homo sapiens, AGS, 24 h; for selectivity index AGS: SI = IC50 noncancer cells/IC50 cancer cells, in relation to human neonatal fibroblasts. The format is cell-based, human. The protocol: (§1) The human gastric adenocarcinoma AGS, cervical cancer HeLa, and acute promyelocytic leukemia HL-60 cells were obtained from the American Type Culture Collection (ATCC, Manassas, VA, USA). Human neonatal fibroblasts were obtained from LGC Standards (Luckenwalde, Germany). The HeLa and AGS lines were cultured in Dulbecco’s modified Eagle’s medium (DMEM) and DMEM/F12 medium, respectively. The HL-60 line was maintained in RPMI-1640 medium. Fibroblasts were cultured in Fibroblast Growth Medium with Supplement Mix. All the media were supplemented with 100 units/mL of penicillin, 100 µg/mL of streptomycin, and 10% (v/v) fetal bovine serum (FBS) (Merck Millipore, Burlington, MA, USA). The cells were incubated at 37 °C and 5% CO2.
(§2) To estimate the cytotoxic effect of the five compounds (4–8), MTT (3-(4,5-dimethylthiazol-2-yl)-2,5-diphenyltetrazolium bromide) assay was used. Oxaliplatin was used as a positive control in this test. All the cell lines were seeded in 96-well plates at a density of 5 × 10^3 cells/well and treated for 24 h with the compounds at concentrations of 0.5–40 µg/mL. Oxaliplatin was tested in the range of 20–400 µg/mL (50–1000 µM). After treatment, the cells were incubated with MTT (0.5 mg/mL; Merck Millipore, Burlington, MA, USA) for 3 h. Then, DMSO was used to dissolve formazan crystals, and the absorbance of the formazan solution was measured with a plate reader (Epoch, BioTek Instruments, Santa Clara, CA, USA). All the results (±standard deviation (SD)) were obtained from six repetitions in at least two independent experiments. The data are expressed as IC50 values (µg/mL).
For orientation: Formazan colour is commonly taken as a measure of viable cells.

The test system of the next assay is cervical cancer HeLa. Nature of the assay: MTT assay, HeLa cells. The format is cell-based, human. The settings on record: for IC50: Homo sapiens, HeLa; for selectivity index HeLa: SI = IC50 noncancer cells/IC50 cancer cells, in relation to human neonatal fibroblasts. As to the method: as §1, §2
Assay [2] has as its system acute promyelocytic leukemia HL-60. Nature of the assay: MTT assay, HL-60 cells. The conditions noted are these: for IC50: Homo sapiens, HL-60, 24 h; for selectivity index HL-60: SI = IC50 noncancer cells/IC50 cancer cells, in relation to human neonatal fibroblasts. Format: cell-based, human. The protocol: as §1, §2
Assay [3] deals with human neonatal fibroblasts. Nature of the assay: MTT assay, noncancerous fibroblasts. The conditions noted are these: 24 h treatment; for IC50: Homo sapiens, Fibroblast. The format is cell-based. As to the method:
as §1, §2

The test system of assay [4] is cancer cells (HeLa, HL-60, AGS). Nature of the assay: MTT assay, cancer cells taken together. Format: cell-based, human. The conditions noted are these: HL-60 and AGS together. The protocol: as §1, §2
The nature of assay [5]: DPPH radical scavenging assay. The settings on record: concentration of 800 µg/mL. As to the method: The DPPH radical scavenging assay of samples (ligands or complexes) was performed with ascorbic acid as a standard. Different concentrations of chalcone derivatives, dissolved in DMSO, were mixed with the same amount of 0.06 mM DPPH methanolic solution and incubated at room temperature in the dark for 30 min. The absorbance was analyzed at λ = 517 nm using a 96-well microplate reader (Epoch, BioTek System, Winooski, VT, USA). The control was composed of DPPH and DMSO. DPPH inhibition was calculated according to the following Formula (2):DPPH Inhibition (%) = [(Acontrol − Asample)/Acontrol] × 100%(2)
For orientation: The DPPH test is a chemical assay of radical scavenging.

A further assay concerns the target T1, neutrophil elastase (Sus scrofa, UniProt P00772).
T1 construct: purchased Sigma Chemical Co. (St. Louis, MO, USA)
As to the kind of experiment: Elastase assay (SANA substrate). Format: biochemical, porcine. The conditions noted are these: Tris-HCl pH 8.0, SANA substrate; read-out: neutrophil elastase inhibition IC50 (converted). As to the method:
The elastase analysis was performed according to the spectrophotometric method with oleanolic acid as a reference. The reaction mixture (Tris-HCl buffer (pH 8.0), 1.0 μg/mL porcine pancreatic elastase, and different concentrations of chalcone derivatives was preincubated at room temperature for 15 min. Afterwards, the addition of the substrate—SANA—started the reaction. Product formation changes were analyzed at λ = 410 nm for 20 min every 20 s (Epoch, BioTek Instruments, Santa Clara, CA, USA). The control was composed of Tris-HCl buffer (pH 8.0), an appropriate concentration of the chalcone derivative, and SANA.

Assay [6] relates to Bacillus cereus PCM 1948,2019 (ATCC11778). Nature of the assay: MIC determination. Format: cell-based. The conditions noted are these: 37 °C, 48 h. As to the method: (§3) The MIC determinations for Staphylococcus epidermidis ATCC14990, Staphylococcus aureus ATCC6538, Enterococcus faecalis ATCC51299, Klebsiella pneumoniae ATCC13883, Escherichia coli ATCC8739, Salmonella enterica ATCC13076, Helicobacter pylori ATCC43504, Campylobacter jejuni ZMF, Campylobacter coli ZMF, Bacillus cereus PCM 1948,2019 (ATCC11778), and Listeria monocytogenes PCM2191 were performed based on the methodology described by Krauze-Baranowska et al.. The procedure for H. pylori was used in the experiments with Campylobacter strains, and the procedure for B. subtilis was used in the experiments with L. monocytogenes and B. cereus. The tested samples were dissolved in DMSO and diluted with water (concentration of approximately 500 μg/mL). The solutions were diluted geometrically by transferring the mixture/dilution (100 μL) from the first to the twelfth well of the microtiter plate. The final concentrations of samples used for antimicrobial effects ranged from 500 to 0.006 µg/mL. Ampicillin was used as a reference compound in the concentration range of 128 to 0.0625 µg/mL. The tests were incubated at 37 °C for 48 h. The diluent concentration had no effect on the activity of the tested compounds. All experiments were performed in triplicate.

A further assay relates to Campylobacter coli ZMF. Nature of the assay: MIC determination. Format: cell-based. The settings on record: 37 °C, 48 h. As to the method: as §3
The test system of a further assay is Campylobacter jejuni ZMF. As to the kind of experiment: MIC determination. Format: cell-based. The settings on record: 37 °C, 48 h. As to the method: as §3
For assay [7], the system named is Enterococcus faecalis ATCC51299. Nature of the assay: MIC determination. The format is cell-based. The settings on record: 37 °C, 48 h. The protocol:
as §3

Assay [8] deals with Escherichia coli ATCC8739. Nature of the assay: MIC determination. The format is cell-based. The conditions noted are these: 37 °C, 48 h. As to the method: as §3
In assay [9] the test system is Helicobacter pylori ATCC43504. Nature of the assay: MIC determination. Format: cell-based. The settings on record: 37 °C, 48 h. As to the method:
as §3

Assay [10] relates to Klebsiella pneumoniae ATCC13883. As to the kind of experiment: MIC determination. The format is cell-based. The settings on record: 37 °C, 48 h. As to the method: as §3
Assay [11] has as its system Listeria monocytogenes PCM2191. As to the kind of experiment: MIC determination. Format: cell-based. The settings on record: 37 °C, 48 h. As to the method:
as §3

Assay [12] concerns Salmonella enterica ATCC13076. As to the kind of experiment: MIC determination. The settings on record: 37 °C, 48 h. Format: cell-based. As to the method:
as §3

Assay [13] relates to Staphylococcus aureus ATCC6538. As to the kind of experiment: MIC determination. Format: cell-based. The settings on record: 37 °C, 48 h. The protocol:
as §3

For assay [14], the system named is Staphylococcus epidermidis ATCC14990. As to the kind of experiment: MIC determination. Format: cell-based. The conditions noted are these: 37 °C, 48 h. The protocol:
as §3

For assay [15], the system named is AGS cells. As to the kind of experiment: MitoPotential assay (mitochondrial membrane depolarization). The format is cell-based, human. The conditions noted are these: 40 µg/mL, 5 h. The protocol:
The AGS cells were seeded in a 12-well plate (1 × 10^5 cells/well) and incubated with compound 5 at concentrations of 1, 5, and 10 µg/mL; oxaliplatin at the concentration of 40 µg/mL; and DMSO (0.2%, v/v). After 5 h of exposure, the cells were stained with the Muse MitoPotential Assay Kit (Merck Millipore, Burlington, MA, USA) and analyzed with the Muse Cell Analyzer (Merck Millipore, Burlington, MA, USA). The percentage of depolarized live and dead cells was estimated in the experiments, which were independently repeated three times.

The test system of assay [16] is AGS cells. Nature of the assay: Cell cycle analysis (propidium iodide). Format: cell-based, human. The settings on record: 40 µg/mL. As to the method:
The AGS cells were seeded in a 6-well plate (5 × 10^5 cells/well) and incubated with compound 5 at concentrations of 1, 5, and 10 µg/mL for 48 h; oxaliplatin at the concentration of 40 µg/mL; and DMSO (0.2%, v/v). After treatment, the cells were stained with propidium iodide from the Muse Cell Cycle Assay Kit (Merck Millipore, Burlington, MA, USA), and the amount of cells in each phase of the cell cycle was determined using the Muse Cell Analyzer (Merck Millipore, Burlington, MA, USA). The experiment was independently repeated three times.

A further assay relates to caspase-8. Nature of the assay: Caspase-Glo 8 activity assay in AGS cells. The format is cell-based, human. The conditions noted are these: 20 µg/mL. As to the method: (§4) The AGS cells were seeded in a 96-well plate (5 × 10^3 cells/well) and treated with compound 5 at concentrations of 1, 5, 7, and 10 µg/mL for 24 h; oxaliplatin at the concentration of 20 µg/mL; and DMSO (1%, v/v). The cells were then treated with reagents from Caspase-Glo 8 Assay or Caspase-Glo 9 Assay (Promega, Madison, WI, USA) and measured with the luminometer Glomax Multi + Detection System (Promega, Madison, WI, USA). The experiments were performed in two independent repeats in three repetitions.

Another assay relates to caspase-9. Nature of the assay: Caspase-Glo 9 activity assay in AGS cells. The settings on record: 20 µg/mL. Format: cell-based, human. The protocol:
as §4

SMILES strings stand for the structures. ≈ marks a conversion by molar mass, not a printed value.

One may read the IC50 as the point on the concentration scale where inhibition reaches its midpoint. Usually MIC stands for the least concentration at which growth counts as inhibited. A high value points to a need for much substance.

T1 sequence (P00772 27-266): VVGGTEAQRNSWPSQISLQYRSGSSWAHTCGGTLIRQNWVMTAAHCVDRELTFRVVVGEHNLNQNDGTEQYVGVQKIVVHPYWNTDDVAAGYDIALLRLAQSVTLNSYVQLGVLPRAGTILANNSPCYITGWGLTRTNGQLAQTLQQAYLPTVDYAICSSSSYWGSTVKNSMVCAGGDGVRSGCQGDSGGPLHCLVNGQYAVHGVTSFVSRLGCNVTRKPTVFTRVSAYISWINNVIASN

Turning to `Cc1cc(S(=O)(=O)Nc2ccc(C(=O)/C=C/c3ccc(F)cc3)cc2)c(Cl)cc1Cl` [Compound 6, (E)-2,4-Dichloro-N-{4-[3-(4-Fluorophenyl)acryloyl]phenyl}-5-Methylbenzenesulfonamide], the IC50 is 4.49 ± 0.44 µg/mL (≈ 9.67 µM) in [1] (MTT, 24 h treatment); 8.65 ± 0.52 µg/mL (≈ 18.6 µM) with cervical cancer HeLa (MTT, 24 h treatment); 1.69 ± 0.2 µg/mL (≈ 3.64 µM) in [2] (MTT, 24 h treatment); 27 ± 2.29 µg/mL (≈ 58.1 µM) in [3]; 181 µM on neutrophil elastase. Moreover, the “selectivity index AGS” value in [1] was determined as 6.01. Further, in the assay on cervical cancer HeLa, the “selectivity index HeLa” value is recorded as 3.12. Further, in [2], the “selectivity index HL-60” value is given as 15.98. Besides, the “IC50 toward cancer cells” value in assay [4] is listed as “weaker activity”. Besides, the “% of DPPH radical inhibition” value in assay [5] was determined as 21.85 ± 0.22%. Moreover, the MIC (in [6]; against Campylobacter coli ZMF; with Campylobacter jejuni ZMF; in assay [7]; in assay [8]; in assay [9]) was greater than 500 µg/mL in each case. The MIC in assay [10], in assay [11], in assay [12], in assay [13] and in assay [14] was greater than 500 µg/mL throughout.

For `O=C1[O][Pt]2([NH][C@@H]3CCCC[C@H]3[NH]2)[O]C1=O` [Oxaliplatin, reference compound], the “IC50 AGS” value in assay [1] (MTT, 24 h treatment) worked out at 17.90 ± 1.20 µg/mL. Besides, the “IC50 HeLa” value with cervical cancer HeLa (MTT, 24 h treatment) is 35.76 ± 1.72 µg/mL. In addition, in [3], the “IC50 Fibroblasts” value was found to be 95.79 ± 3.24 µg/mL. In addition, the “changes in percentages of live, depolarized, and dead cells versus control” value in the assay with AGS cells [15] was “no observable changes”. Moreover, in the assay on AGS cells [16], the “amount of cells in subG0 phase (in words)” value was “significant increase”, the “cells in G0/G1 phase” value came to 35.6%, the “cells in G2/M phase” value came out at 32.4% and the “cells in S phase” value is listed as 14.2%. Moreover, the “caspase-8 activity (in words)” value in the assay with caspase-8 is listed as “notable increase”. The “caspase-9 activity (in words)” value with caspase-9 is given as “notable increase”.

In the case of `Cc1cc(S(=O)(=O)Nc2ccc(C(=O)/C=C/c3ccc(Cl)cc3)cc2)c(Cl)cc1Cl` [Compound 7, (E)-2,4-Dichloro-N-{4-[3-(4-Chlorophenyl)acryloyl]phenyl}-5-Methylbenzenesulfonamide], the IC50 is less than 1 µg/mL in assay [1] (MTT, 24 h treatment); 6.34 ± 0.04 µg/mL (≈ 13.2 µM) in the assay on cervical cancer HeLa (MTT, 24 h treatment); less than 1.57 µg/mL in assay [2] (MTT, 24 h treatment); 29.9 ± 3.27 µg/mL (≈ 62.3 µM) in [3]; 53.3 µM at neutrophil elastase. For the same compound, the “selectivity index AGS” value in assay [1] was determined as 19.08. Besides, the “selectivity index HeLa” value in the assay with cervical cancer HeLa stood at 4.72. Further, the “IC50 HL-60” value in assay [2] (MTT, 24 h treatment) was determined as 1.46 ± 0.20 µg/mL (≈ 3.04 µM). In addition, the “selectivity index HL-60” value in [2] is reported as 20.51. In assay [5], the “% of DPPH radical inhibition” value was found to be 18.70 ± 0.04%. Moreover, the MIC (in assay [6]; in the assay with Campylobacter coli ZMF; in the assay on Campylobacter jejuni ZMF; in assay [7]; in assay [8]; in [9]) was greater than 500 µg/mL in each case. Besides, the MIC in [10], in [11], in [12], in [13] and in assay [14] was greater than 500 µg/mL throughout.

The values are drawn from publication PMC10778824, “New Chalcone Derivatives Containing 2,4-Dichlorobenzenesulfonamide Moiety with Anticancer and Antioxidant Properties” (International Journal of Molecular Sciences, 2023).
